Data reported in patent publication US10363239B2, “Method for inhibiting growth of cancer cells” (Pain Therapeutics, Inc., priority 2013, dated 2019).

How the values were obtained:
[1] = target: FLNA pentapeptide of SEQ ID NO: 1 (Bn-VAKGL) (Homo sapiens, UniProt P21333); test: FITC-NLX-based FLNA screening assay (inhibition of FITC-naloxone binding to Bn-VAKGL on streptavidin plates); details: 10 nM FITC-NLX; for inhibition at 0.01 µM: read-out: Percent Binding Inhibition, FLNA-binding compound 0.01 μM; for inhibition at 0.1 µM: read-out: Percent Binding Inhibition, FLNA-binding compound 0.1 μM; for inhibition at 1 µM: read-out: Percent Binding Inhibition, FLNA-binding compound 1 μM
mu opiate receptor (MOR) = test: MOR agonist activity using [35S]GTPγS binding assay in striatal membranes; assay type: biochemical; details: for MOR agonist activity ([35S]GTPγS binding), FLNA-Binding Compound as Agonist 1 μM + BFNA: 1 μM compound + 1 μM β-funaltrexamine
Outline: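 Striatal membranes (200 μg) were preincubated 5 min at 30 °C in HEPES pH 7.5 with 100 mM NaCl, 1 mM MgCl2 and 0.5 nM [35S]GTPγS, then 5 min more with 0.1–10 μM compound. Gαo was immunoprecipitated and bound radioactivity counted by scintillation.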

[2] = 0.1 μM compound relative to DAMGO
[3] = 1 μM compound + BFNA relative to DAMGO + BFNA
[4] = 1 μM compound relative to DAMGO
[5] = Series B, 0.1 μM compound, relative to DAMGO
[6] = Series B, 0.1 μM compound, [35S]GTPγS binding to Gαo, striatal membranes
[7] = Series B, 1 μM compound + 1 μM β-FNA
[8] = Series B, 1 μM compound + β-FNA, relative to DAMGO + BFNA
[9] = Series B, 1 μM compound, relative to DAMGO
[10] = Series B, 1 μM compound, [35S]GTPγS binding to Gαo, striatal membranes

| Compound | inhibition at 0.01 µM [1] | inhibition at 0.1 µM [1] | inhibition at 1 µM [1] | MOR agonist activity ([35S]GTPγS binding), FLNA-Binding Compound as Agonist 0.1 μM (mu opiate receptor (MOR); 0.1 μM compound) | % DAMGO (0.1 μM) (mu opiate receptor (MOR); [2]) | MOR agonist activity ([35S]GTPγS binding), FLNA-Binding Compound as Agonist 1 μM (mu opiate receptor (MOR); 1 μM compound) | MOR agonist activity ([35S]GTPγS binding), FLNA-Binding Compound as Agonist 1 μM + BFNA (mu opiate receptor (MOR)) | % DAMGO + BFNA (mu opiate receptor (MOR); [3]) | % DAMGO (1 μM) (mu opiate receptor (MOR); [4]) | Percent Binding Inhibition ([1]; FLNA-binding compound 0.01 μM) | Percent Binding Inhibition ([1]; FLNA-binding compound 0.1 μM) | Percent Binding Inhibition ([1]; FLNA-binding compound 1 μM) | % DAMGO (0.1 μM) (mu opiate receptor (MOR); [5]) | MOR agonist activity, percent [35S]GTPγS binding at the stated compound concentration (mu opiate receptor (MOR); [6]) | MOR agonist activity, percent [35S]GTPγS binding at the stated compound concentration (mu opiate receptor (MOR); [7]) | % DAMGO + BFNA (mu opiate receptor (MOR); [8]) | % DAMGO (1 μM) (mu opiate receptor (MOR); [9]) | MOR agonist activity, percent [35S]GTPγS binding at the stated compound concentration (mu opiate receptor (MOR); [10]) |
| --- | --- | --- | --- | --- | --- | --- | --- | --- | --- | --- | --- | --- | --- | --- | --- | --- | --- | --- |
| CC1CCC(C(C)C)C(OCC(O)Cn2ccc3ccccc32)C1 (stereo not drawn) [Compound A0078] | 50.1% | 55.8% | 57.6% | 250.5% | 124.9% | 289.9% | 147.8% | 274.2% | 92.3% |  |  |  |  |  |  |  |  |  |
| CC1CCC(C(C)C)C(OCC(O)CN2CC(C)OC(C)C2)C1 (stereo not drawn) [Compound A3333] |  |  |  | 170.7% | 88.9% | 328.3% | 65.9% | 136.7% | 101.0% | 40.4% | 48.5% | 54.2% |  |  |  |  |  |  |
| COc1c2c(cc3c1C(CC(=O)c1ccc(C#N)cc1)[N+](C)(C)CC3)OCO2 (stereo not drawn) [Compound B0001] | 37.1% | 48.8% | 54.3% |  |  |  |  |  |  |  |  |  | 77.4% | 128.2% | 28.0% | 43.1% | 74.9% | 202.3% |
| COc1c2c(cc3c1C(CC(=O)c1ccc(O)c(C)c1)[N+](C)(C)CC3)OCO2 (stereo not drawn) [Compound B0002] | 40.2% | 46.4% | 55% |  |  |  |  |  |  |  |  |  | 100.0% | 165.7% | 101.4% | 156.0% | 81.1% | 219.0% |
| COc1c2c(cc3c1C(CC(=O)c1ccc(N4CCOCC4)cc1)[N+](C)(C)CC3)OCO2 (stereo not drawn) [Compound B0004] | 38.9% | 50% | 54.8% |  |  |  |  |  |  |  |  |  | 102.8% | 170.3% | 72.0% | 110.8% | 85.8% | 231.7% |
| COc1c2c(cc3c1C(CC(=O)c1ccncc1)[N+](C)(C)CC3)OCO2 (stereo not drawn) [Compound B0005] | 31.8% | 34.8% | 41.7% |  |  |  |  |  |  |  |  |  | 50.5% | 89.2% | 45.1% | 68.6% | 42.6% | 110.4% |
| COc1c2c(cc3c1C(CC(=O)c1cccc(C(F)(F)F)c1)[N+](C)(C)CC3)OCO2 (stereo not drawn) [Compound B0006] | 45.1% | 53.5% | 61.3% |  |  |  |  |  |  |  |  |  | 44.8% | 77.0% | 18.6% | 29.0% | 47.5% | 131.3% |
| COc1cc(F)ccc1C(=O)CC1c2c(cc3c(c2OC)OCO3)CC[N+]1(C)C (stereo not drawn) [Compound B0007] | 43.6% | 53.1% | 57.3% |  |  |  |  |  |  |  |  |  | 95.3% | 168.3% | 64.5% | 98.2% | 86.1% | 223.3% |
| COc1cc(CC(=O)CC2c3c(cc4c(c3OC)OCO4)CC[N+]2(C)C)cc(OC)c1OC (stereo not drawn) [Compound B0008] | 35.5% | 40.3% | 52.8% |  |  |  |  |  |  |  |  |  | 84.0% | 148.3% | 46.0% | 70.0% | 101.9% | 264.1% |
| COc1c2c(cc3c1C(CC(=O)Cc1ccc(Br)cc1)[N+](C)(C)CC3)OCO2 (stereo not drawn) [Compound B0011] | 40.9% | 50.3% | 55.8% |  |  |  |  |  |  |  |  |  | 95.7% | 158.6% | 78.0% | 120.0% | 78.7% | 212.6% |
| COc1c2c(cc3c1C(CC(=O)Cc1ccc(C#N)cc1)[N+](C)(C)CC3)OCO2 (stereo not drawn) [Compound B0012] | 39.4% | 46.9% | 51.7% |  |  |  |  |  |  |  |  |  | 97.8% | 167.4% | 145.1% | 278.5% | 79.4% | 212.0% |
| COc1ccc(CCC(=O)CC2c3c(cc4c(c3OC)OCO4)CC[N+]2(C)C)cc1 (stereo not drawn) [Compound B0016] | 27.1% | 33.7% | 41.9% |  |  |  |  |  |  |  |  |  | 99.2% | 167.7% | 72.2% | 109.4% | 79.9% | 213.6% |
